30 compounds from patent US11072598B2, “Somatostatin modulators and uses thereof” (CRINETICS PHARMACEUTICALS, INC., priority 2017, dated 2021) can be followed below.

In this experiment the target is T1, human somatostatin receptor subtype 2 (Homo sapiens, UniProt P30874).
T1 construct: expressed in transfected cells
T1 sequence (P30874 whole entry): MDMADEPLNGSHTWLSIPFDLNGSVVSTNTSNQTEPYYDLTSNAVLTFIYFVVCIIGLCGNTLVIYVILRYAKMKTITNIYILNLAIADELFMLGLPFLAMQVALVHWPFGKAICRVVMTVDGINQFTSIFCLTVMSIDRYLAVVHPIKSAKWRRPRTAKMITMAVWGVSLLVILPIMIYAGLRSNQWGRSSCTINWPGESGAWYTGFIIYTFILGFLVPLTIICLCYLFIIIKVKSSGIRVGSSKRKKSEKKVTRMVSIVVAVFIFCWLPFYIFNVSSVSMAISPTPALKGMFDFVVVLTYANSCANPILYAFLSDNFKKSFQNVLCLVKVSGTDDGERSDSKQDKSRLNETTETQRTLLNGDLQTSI
Nature of the experiment: cAMP functional assay for SSTR2 agonists. The format is cell-based. Conditions: inhibition of cAMP activities via human SST2 receptor (SSTR2), CHO-K1 cells; read-out: EC50. The procedure, abridged:
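CHO-K1 cells stably expressing human SSTR2 were treated for 20 min at 37 °C with compound plus NKH477 (added as 1.6 μM) in HBSS with IBMX. Intracellular cAMP was measured by HTRF against a standard curve. EC50 values came from concentration-response curves.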
`Cc1cc(F)cc(-c2cnnc(-c3cc4ccc(F)cc4[nH]3)c2N2CCC(N)CC2)c1` [Compound 3-4, 1-[3-(6-fluoro-1H-indol-2-yl)-5-(3-fluoro-5-methylphenyl)pyridazin-4-yl]piperidin-4-amine]: the EC50 – broadly, the concentration at which the effect is half-maximal – was less than 10 nM.

Regarding `COc1ccc2cc(-c3nncc(-c4cc(C)cc(F)c4)c3N3CCC(N)CC3)[nH]c2c1` [Compound 3-5, 1-[5-(3-fluoro-5-methylphenyl)-3-(6-methoxy-1H-indol-2-yl)pyridazin-4-yl]piperidin-4-amine], the EC50 was less than 10 nM. As for `Cc1cc(F)cc(-c2cnnc(-c3cc4c(Cl)cccc4[nH]3)c2N2CCC(N)CC2)c1` [Compound 3-6, 1-[3-(4-chloro-1H-indol-2-yl)-5-(3-fluoro-5-methylphenyl)pyridazin-4-yl]piperidin-4-amine], the figure is less than 10 nM; as for `Cc1cc(F)cc(-c2cnnc(-c3cc4cccc(Cl)c4[nH]3)c2N2CCC(N)CC2)c1` [Compound 3-7, 1-[3-(7-chloro-1H-indol-2-yl)-5-(3-fluoro-5-methylphenyl)pyridazin-4-yl]piperidin-4-amine], less than 10 nM; as for `Cc1cc(F)cc(-c2cnnc(-c3cc4cc(F)ccc4[nH]3)c2N2CCC(N)CC2)c1` [Compound 3-8, 1-[3-(5-fluoro-1H-indol-2-yl)-5-(3-fluoro-5-methylphenyl)pyridazin-4-yl]piperidin-4-amine], less than 10 nM.

Take `COc1ccc2[nH]c(-c3nncc(-c4cc(C)cc(F)c4)c3N3CCC(N)CC3)cc2c1` [Compound 3-9, 1-[5-(3-fluoro-5-methylphenyl)-3-(5-methoxy-1H-indol-2-yl)pyridazin-4-yl]piperidin-4-amine]: the EC50 was less than 10 nM. To `COc1ccc2[nH]c(-c3nncc(-c4cc(C)cc(F)c4)c3N3CCC(N)CC3)nc2c1` [Compound 3-10, 1-[5-(3-fluoro-5-methylphenyl)-3-(5-methoxy-1H-1,3-benzodiazol-2-yl)pyridazin-4-yl]piperidin-4-amine] belongs less than 10 nM; to `Cc1cc(F)cc(-c2cnnc(-c3cc4ccc(C#N)cc4[nH]3)c2N2CCC(N)CC2)c1` [Compound 3-12, 2-[4-(4-aminopiperidin-1-yl)-5-(3-fluoro-5-methylphenyl)pyridazin-3-yl]-1H-indole-6-carbonitrile], less than 10 nM. As for `Cc1cc(F)cc(-c2cnnc(-c3nc4cc(F)ccc4[nH]3)c2N2CCC(N)CC2)c1` [Compound 3-13, 1-[3-(5-fluoro-1H-1,3-benzodiazol-2-yl)-5-(3-fluoro-5-methylphenyl)pyridazin-4-yl]piperidin-4-amine], the figure is less than 10 nM.

`Cc1cc(F)cc(-c2cnnc(-c3[nH]c4cc(Cl)ccc4c3Cl)c2N2CCC(N)CC2)c1` [Compound 3-14, 1-[3-(3,6-dichloro-1H-indol-2-yl)-5-(3-fluoro-5-methylphenyl)pyridazin-4-yl]piperidin-4-amine]: the EC50 was less than 10 nM. With `Cc1cc(F)cc(-c2cnnc(-c3cc4ccc(-c5nn[nH]n5)cc4[nH]3)c2N2CCC(N)CC2)c1` [Compound 3-15, 1-[5-(3-fluoro-5-methylphenyl)-3-[6-(2H-1,2,3,4-tetrazol-5-yl)-1H-indol-2-yl]pyridazin-4-yl]piperidin-4-amine], the EC50 was greater than 100 nM. On to `Cc1cc(F)cc(-c2cnnc(-c3cc4ccc(C)cc4[nH]3)c2N2CCC(N)CC2)c1` [Compound 3-16, 1-[5-(3-fluoro-5-methylphenyl)-3-(6-methyl-1H-indol-2-yl)pyridazin-4-yl]piperidin-4-amine], for which the EC50 was less than 10 nM.

`Cc1cc(F)cc(-c2cnnc(-c3cc4cc(C#N)ccc4[nH]3)c2N2CCC(N)CC2)c1` [Compound 3-17, 2-[4-(4-aminopiperidin-1-yl)-5-(3-fluoro-5-methylphenyl)pyridazin-3-yl]-1H-indole-5-carbonitrile]: the concentration for a half-maximal effect (EC50) is less than 10 nM. To `COC(=O)c1ccc2cc(-c3nncc(-c4cc(C)cc(F)c4)c3N3CCC(N)CC3)[nH]c2c1` [Compound 3-18, methyl 2-[4-(4-aminopiperidin-1-yl)-5-(3-fluoro-5-methylphenyl)pyridazin-3-yl]-1H-indole-6-carboxylate] belongs less than 10 nM.

Take `Cc1cc(F)cc(-c2cnnc(-c3cc4ccc(C(N)=O)cc4[nH]3)c2N2CCC(N)CC2)c1` [Compound 3-19, 2-[4-(4-aminopiperidin-1-yl)-5-(3-fluoro-5-methylphenyl)pyridazin-3-yl]-1H-indole-6-carboxamide]: the EC50 is less than 10 nM. As for `CONC(=O)c1ccc2cc(-c3nncc(-c4cc(C)cc(F)c4)c3N3CCC(N)CC3)[nH]c2c1` [Compound 3-20, 2-[4-(4-aminopiperidin-1-yl)-5-(3-fluoro-5-methylphenyl)pyridazin-3-yl]-N-methoxy-1H-indole-6-carboxamide], the figure is 10 to 100 nM; as for `COc1ccc2c(Cl)c(-c3nncc(-c4cc(C)cc(F)c4)c3N3CCC(N)CC3)[nH]c2c1` [Compound 3-21, 1-[3-(3-chloro-6-methoxy-1H-indol-2-yl)-5-(3-fluoro-5-methylphenyl)pyridazin-4-yl]piperidin-4-amine], less than 10 nM. Consider `Cc1cc(F)cc(-c2cnnc(-c3nc4cc(C#N)ccc4[nH]3)c2N2CCC(N)CC2)c1` [Compound 3-22, 2-[4-(4-aminopiperidin-1-yl)-5-(3-fluoro-5-methylphenyl)pyridazin-3-yl]-1H-1,3-benzodiazole-5-carbonitrile], for which the EC50 was less than 10 nM. As for `Cc1cc(F)cc(-c2cnnc(-c3cc4cccc(C#N)c4[nH]3)c2N2CCC(N)CC2)c1` [Compound 3-23, 2-[4-(4-aminopiperidin-1-yl)-5-(3-fluoro-5-methylphenyl)pyridazin-3-yl]-1H-indole-7-carbonitrile], the figure is less than 10 nM; as for `Cc1cc(F)cc(-c2cnnc(-c3[nH]c4cc(C#N)ccc4c3Cl)c2N2CCC(N)CC2)c1` [Compound 3-24, 2-[4-(4-aminopiperidin-1-yl)-5-(3-fluoro-5-methylphenyl)pyridazin-3-yl]-3-chloro-1H-indole-6-carbonitrile], less than 10 nM; as for `COc1ccc2c(C#N)c(-c3nncc(-c4cc(C)cc(F)c4)c3N3CCC(N)CC3)[nH]c2c1` [Compound 3-25, 2-[4-(4-aminopiperidin-1-yl)-5-(3-fluoro-5-methylphenyl)pyridazin-3-yl]-6-methoxy-1H-indole-3-carbonitrile], less than 10 nM. To `Cc1cc(F)cc(-c2cnnc(-c3[nH]c4cc(C#N)ccc4c3C#N)c2N2CCC(N)CC2)c1` [Compound 3-26, 2-[4-(4-aminopiperidin-1-yl)-5-(3-fluoro-5-methylphenyl)pyridazin-3-yl]-1H-indole-3,6-dicarbonitrile] belongs less than 10 nM; to `CNc1ncc(-c2cc(C)cc(F)c2)c(N2CCC(NC)CC2)c1-c1nc2cc(Cl)ccc2[nH]1` [Compound 4-1, 3-(5-chloro-1H-1,3-benzodiazol-2-yl)-5-(3-fluoro-5-methylphenyl)-N-methyl-4-[4-(methylamino)piperidin-1-yl]pyridin-2-amine], less than 10 nM; to `CNC1CCN(c2c(-c3cc(C)cc(F)c3)cnc(N)c2-c2nc3ccc(C#N)cc3[nH]2)CC1` [Compound 4-2, 2-[2-amino-5-(3-fluoro-5-methylphenyl)-4-[4-(methylamino)piperidin-1-yl]pyridin-3-yl]-1H-1,3-benzodiazole-6-carbonitrile], less than 10 nM.

For `CNC1CCN(c2c(-c3cc(C)cc(F)c3)cnc(N)c2-c2nc3cc(C#N)cc(F)c3[nH]2)CC1` [Compound 4-3, 2-[2-amino-5-(3-fluoro-5-methylphenyl)-4-[4-(methylamino)piperidin-1-yl]pyridin-3-yl]-7-fluoro-1H-1,3-benzodiazole-5-carbonitrile], the EC50 is less than 10 nM. To `COc1cccc2nc(-c3c(N(C)C)ncc(-c4cc(C)cc(F)c4)c3N3CCC(N)CC3)[nH]c12` [Compound 4-4, 4-(4-aminopiperidin-1-yl)-5-(3-fluoro-5-methylphenyl)-3-(7-methoxy-1H-1,3-benzodiazol-2-yl)-N,N-dimethylpyridin-2-amine] belongs less than 10 nM; to `Cc1cc(F)cc(-c2cnc(N(C)C)c(-c3nc4cc(F)cc(F)c4[nH]3)c2N2CCC(N)CC2)c1` [Compound 4-5, 4-(4-aminopiperidin-1-yl)-3-(5,7-difluoro-1H-1,3-benzodiazol-2-yl)-5-(3-fluoro-5-methylphenyl)-N,N-dimethylpyridin-2-amine], less than 10 nM. To `COc1cc(F)cc2nc(-c3c(N4CC(F)C4)ncc(-c4cccc(F)c4)c3N3CCC(N)CC3)[nH]c12` [Compound 4-9, 1-[3-(5-fluoro-7-methoxy-1H-1,3-benzodiazol-2-yl)-2-(3-fluoroazetidin-1-yl)-5-(3-fluorophenyl)pyridin-4-yl]piperidin-4-amine] belongs less than 10 nM; to `CNC1CCN(c2c(-c3cc(C)cc(F)c3)cnc(N)c2-c2nc3cc(F)cc(OC)c3[nH]2)CC1` [Compound 4-10, 3-(5-fluoro-7-methoxy-1H-1,3-benzodiazol-2-yl)-5-(3-fluoro-5-methylphenyl)-4-[4-(methylamino)piperidin-1-yl]pyridin-2-amine], less than 10 nM. `Cc1cc(F)cc(-c2cnc(N3CCNCC3)c(-c3nc4cc(Cl)ccc4[nH]3)c2N2CCC(N)CC2)c1` [Compound 4-11, 1-[3-(5-chloro-1H-1,3-benzodiazol-2-yl)-5-(3-fluoro-5-methylphenyl)-2-(piperazin-1-yl)pyridin-4-yl]piperidin-4-amine]: the EC50 is less than 10 nM.
